Laboratory results: article PMC6737244, “Cathelicidin Peptides Restrict Bacterial Growth via Membrane Perturbation and Induction of Reactive Oxygen Species” (mBio, 2019)
Ends that are not written are not given here.

System: P. aeruginosa biofilms
Assay: Established biofilm in flow cell, LIVE/DEAD staining
Conditions: 100 nM

## FRKKLKKLFKKLSPVIPLLKLG [B22]
4-h period, continuous flow
  Drop in biofilm biomass: 50%
After 1 h
  Cell death in biofilm (spike): > 50
